29 compounds from ChEMBL document CHEMBL1201862, “PubChem BioAssay data set” (2004) can be followed below.

In series [1] the target is Prothrombin (Homo sapiens, UniProt P00734). Description: Thrombin 1536 HTS Dose Response Confirmation. [Related pubchem assays: 1046 (Thrombin 1536 HTS; hits were confirmed in this assay)]. The format is functional.
The target of series [2] is T1, Calpain-2 catalytic subunit (Sus scrofa, UniProt P43367).
T1 sequence (P43367 whole entry): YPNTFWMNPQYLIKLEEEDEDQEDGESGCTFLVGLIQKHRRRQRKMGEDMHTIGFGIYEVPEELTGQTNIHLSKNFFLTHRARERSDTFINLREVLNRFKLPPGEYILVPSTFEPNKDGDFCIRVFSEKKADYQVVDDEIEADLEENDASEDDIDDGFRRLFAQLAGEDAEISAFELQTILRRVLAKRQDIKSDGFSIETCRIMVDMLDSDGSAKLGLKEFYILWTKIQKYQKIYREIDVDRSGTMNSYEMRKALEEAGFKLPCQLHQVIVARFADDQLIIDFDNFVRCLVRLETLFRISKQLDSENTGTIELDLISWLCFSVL
The experiment in a line: m-calpain protease blockers, concentration series – biochemical, fluorogenic peptide substrate, dose response (AID 1420). The format is functional.

The target in series [3] is Cytochrome P450 2C9 (Homo sapiens, UniProt P11712).
In series [4] the test system is HeLa. Description: ATP-based viability loss in HeLa cells – cell-based, CellTiter-Glo luminescence, cherry-pick samples, cytotoxicity control for MITF activator project, dose response (AID 540259). The format is functional. The conditions noted are these: Homo sapiens.
The target in series [5] is T2, Polyadenylate-binding protein 1 (Homo sapiens, UniProt P11940). The experiment in a line: MLLE domain peptide-binding blockers, IC50 – biochemical, fluorescence polarization, FITC-PAM2 peptide, dose response (AID 602259). The format is functional. The conditions noted are these: read-out: IC50_Mean.
T2 sequence (P11940 whole entry, the tested form may be a part): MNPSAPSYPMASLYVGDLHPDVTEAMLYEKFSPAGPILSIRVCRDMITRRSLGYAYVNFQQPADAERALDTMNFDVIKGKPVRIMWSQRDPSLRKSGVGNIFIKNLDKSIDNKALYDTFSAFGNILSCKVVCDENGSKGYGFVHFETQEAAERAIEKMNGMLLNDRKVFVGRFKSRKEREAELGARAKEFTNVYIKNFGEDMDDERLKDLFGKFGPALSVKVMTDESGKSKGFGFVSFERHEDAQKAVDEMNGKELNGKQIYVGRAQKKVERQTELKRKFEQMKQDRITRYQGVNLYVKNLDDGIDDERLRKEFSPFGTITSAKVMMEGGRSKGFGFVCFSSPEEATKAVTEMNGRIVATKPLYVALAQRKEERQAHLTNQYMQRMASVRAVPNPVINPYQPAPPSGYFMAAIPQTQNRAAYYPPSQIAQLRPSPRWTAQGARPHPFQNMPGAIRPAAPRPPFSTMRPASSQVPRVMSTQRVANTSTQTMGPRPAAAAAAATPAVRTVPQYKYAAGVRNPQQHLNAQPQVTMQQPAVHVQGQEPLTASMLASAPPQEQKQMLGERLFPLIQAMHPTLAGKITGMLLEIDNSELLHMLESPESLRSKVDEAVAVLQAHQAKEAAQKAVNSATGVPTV
Series [6] deals with T2, Polyadenylate-binding protein 1. The experiment in a line: MLLE binding blockers, Cy5 peptide tracer – biochemical, fluorescence polarization, Cy5-PAM2 peptide, secondary, miRNA deadenylation inhibitor project, dose response (AID 602260). The settings on record: read-out: IC50_Mean. The format is functional.
Series [7] addresses T3, Corticotropin-releasing factor receptor 2/Corticotropin-releasing factor-binding protein (Homo sapiens, UniProt P24387+Q13324).
T3 sequence (Q13324 whole entry): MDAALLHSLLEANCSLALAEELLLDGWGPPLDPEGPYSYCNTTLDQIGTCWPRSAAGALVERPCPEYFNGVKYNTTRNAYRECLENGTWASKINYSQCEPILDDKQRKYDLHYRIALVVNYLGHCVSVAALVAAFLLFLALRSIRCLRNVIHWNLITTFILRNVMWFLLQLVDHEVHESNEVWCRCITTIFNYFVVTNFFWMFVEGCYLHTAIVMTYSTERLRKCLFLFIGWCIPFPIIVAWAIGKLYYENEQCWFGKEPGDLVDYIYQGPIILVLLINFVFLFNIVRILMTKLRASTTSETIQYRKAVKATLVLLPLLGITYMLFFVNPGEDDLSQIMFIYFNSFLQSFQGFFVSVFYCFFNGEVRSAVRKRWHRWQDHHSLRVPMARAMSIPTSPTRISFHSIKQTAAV
T3 sequence (P24387 whole entry): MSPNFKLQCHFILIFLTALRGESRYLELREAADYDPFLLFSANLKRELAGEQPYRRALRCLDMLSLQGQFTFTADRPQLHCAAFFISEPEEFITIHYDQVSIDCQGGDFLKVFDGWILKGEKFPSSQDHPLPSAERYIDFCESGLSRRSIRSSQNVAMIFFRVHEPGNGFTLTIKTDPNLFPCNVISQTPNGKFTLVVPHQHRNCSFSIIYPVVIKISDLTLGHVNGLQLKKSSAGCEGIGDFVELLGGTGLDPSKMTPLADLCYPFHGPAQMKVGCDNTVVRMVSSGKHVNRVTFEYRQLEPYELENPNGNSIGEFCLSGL
Description: activators of CRF receptor 2 with binding protein – uHTS hits, confirmation (AID 602473). The class given is functional. The settings on record: read-out: EC50_Mean.

The nature of series [8]: HGIII-sPLA2 enzyme inhibition potency – biochemical, QFRET, IC50, dose response (AID 743457).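 Further: green fluorescence rise as the enzyme cleaves BODIPY PC-A2 in liposomes.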
Series [9] deals with T4, Voltage-gated N-type calcium channel alpha-1B subunit/Amyloid beta A4 precursor protein-binding family A member 1 (Homo sapiens, UniProt Q00975+Q02410). The format is protein assay.
T4 sequence (Q00975 whole entry): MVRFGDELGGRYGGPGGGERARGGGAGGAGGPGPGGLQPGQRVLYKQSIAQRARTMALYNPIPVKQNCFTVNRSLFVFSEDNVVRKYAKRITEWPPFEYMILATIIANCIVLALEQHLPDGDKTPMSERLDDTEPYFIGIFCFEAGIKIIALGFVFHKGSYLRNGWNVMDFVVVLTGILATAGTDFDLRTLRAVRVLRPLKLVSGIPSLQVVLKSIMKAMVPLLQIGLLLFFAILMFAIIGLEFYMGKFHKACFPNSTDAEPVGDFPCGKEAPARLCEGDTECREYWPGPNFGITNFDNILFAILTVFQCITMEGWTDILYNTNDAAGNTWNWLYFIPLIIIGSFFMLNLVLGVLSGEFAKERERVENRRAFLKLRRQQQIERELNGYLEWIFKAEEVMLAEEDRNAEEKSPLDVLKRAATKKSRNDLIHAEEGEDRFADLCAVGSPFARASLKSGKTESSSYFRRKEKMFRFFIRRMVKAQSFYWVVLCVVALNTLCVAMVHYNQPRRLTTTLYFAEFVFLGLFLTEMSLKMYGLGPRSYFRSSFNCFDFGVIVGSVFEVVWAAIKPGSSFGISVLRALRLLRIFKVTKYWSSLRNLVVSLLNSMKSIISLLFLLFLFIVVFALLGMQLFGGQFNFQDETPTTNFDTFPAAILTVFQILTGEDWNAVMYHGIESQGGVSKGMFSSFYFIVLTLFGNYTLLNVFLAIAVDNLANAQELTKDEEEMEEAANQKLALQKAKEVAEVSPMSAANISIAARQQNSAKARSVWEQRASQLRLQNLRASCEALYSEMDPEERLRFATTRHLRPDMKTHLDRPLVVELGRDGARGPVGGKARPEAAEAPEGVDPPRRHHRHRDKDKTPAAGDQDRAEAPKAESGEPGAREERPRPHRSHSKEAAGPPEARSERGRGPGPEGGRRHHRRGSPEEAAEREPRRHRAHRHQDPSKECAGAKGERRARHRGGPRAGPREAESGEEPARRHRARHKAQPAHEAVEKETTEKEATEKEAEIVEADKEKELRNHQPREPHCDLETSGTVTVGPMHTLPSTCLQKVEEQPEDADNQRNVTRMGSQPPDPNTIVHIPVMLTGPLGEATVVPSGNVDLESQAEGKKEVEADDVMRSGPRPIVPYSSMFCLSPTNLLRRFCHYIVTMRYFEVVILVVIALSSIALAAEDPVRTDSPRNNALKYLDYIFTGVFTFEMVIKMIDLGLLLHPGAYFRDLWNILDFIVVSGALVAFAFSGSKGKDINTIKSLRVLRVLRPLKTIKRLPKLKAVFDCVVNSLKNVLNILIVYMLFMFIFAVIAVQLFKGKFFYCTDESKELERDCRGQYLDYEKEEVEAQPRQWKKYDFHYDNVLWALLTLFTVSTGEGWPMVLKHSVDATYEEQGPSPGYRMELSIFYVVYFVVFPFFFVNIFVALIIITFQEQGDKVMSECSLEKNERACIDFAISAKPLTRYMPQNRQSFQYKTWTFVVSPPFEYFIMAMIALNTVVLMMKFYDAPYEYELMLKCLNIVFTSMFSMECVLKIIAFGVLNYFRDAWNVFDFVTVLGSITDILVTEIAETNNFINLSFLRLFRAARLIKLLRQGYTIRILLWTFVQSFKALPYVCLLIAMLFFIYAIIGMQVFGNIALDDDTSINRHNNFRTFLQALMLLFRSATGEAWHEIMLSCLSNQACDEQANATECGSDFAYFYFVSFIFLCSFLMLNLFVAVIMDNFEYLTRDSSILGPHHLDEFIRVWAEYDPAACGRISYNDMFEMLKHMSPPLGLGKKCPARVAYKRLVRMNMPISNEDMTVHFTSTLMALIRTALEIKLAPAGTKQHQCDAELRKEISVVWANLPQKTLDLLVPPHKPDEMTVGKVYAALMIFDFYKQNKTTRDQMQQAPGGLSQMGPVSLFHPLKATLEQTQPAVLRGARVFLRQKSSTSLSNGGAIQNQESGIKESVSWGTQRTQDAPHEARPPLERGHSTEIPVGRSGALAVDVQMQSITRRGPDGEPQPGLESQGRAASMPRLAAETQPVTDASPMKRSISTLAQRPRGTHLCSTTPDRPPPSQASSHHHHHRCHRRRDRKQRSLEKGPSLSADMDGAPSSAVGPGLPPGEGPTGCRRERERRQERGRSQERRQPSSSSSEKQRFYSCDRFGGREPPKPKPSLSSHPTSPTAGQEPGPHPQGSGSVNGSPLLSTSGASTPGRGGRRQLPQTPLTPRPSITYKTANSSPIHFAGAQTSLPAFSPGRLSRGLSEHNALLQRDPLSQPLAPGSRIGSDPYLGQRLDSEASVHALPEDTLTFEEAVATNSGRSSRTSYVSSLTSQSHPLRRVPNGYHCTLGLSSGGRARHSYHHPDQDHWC
T4 sequence (Q02410 whole entry): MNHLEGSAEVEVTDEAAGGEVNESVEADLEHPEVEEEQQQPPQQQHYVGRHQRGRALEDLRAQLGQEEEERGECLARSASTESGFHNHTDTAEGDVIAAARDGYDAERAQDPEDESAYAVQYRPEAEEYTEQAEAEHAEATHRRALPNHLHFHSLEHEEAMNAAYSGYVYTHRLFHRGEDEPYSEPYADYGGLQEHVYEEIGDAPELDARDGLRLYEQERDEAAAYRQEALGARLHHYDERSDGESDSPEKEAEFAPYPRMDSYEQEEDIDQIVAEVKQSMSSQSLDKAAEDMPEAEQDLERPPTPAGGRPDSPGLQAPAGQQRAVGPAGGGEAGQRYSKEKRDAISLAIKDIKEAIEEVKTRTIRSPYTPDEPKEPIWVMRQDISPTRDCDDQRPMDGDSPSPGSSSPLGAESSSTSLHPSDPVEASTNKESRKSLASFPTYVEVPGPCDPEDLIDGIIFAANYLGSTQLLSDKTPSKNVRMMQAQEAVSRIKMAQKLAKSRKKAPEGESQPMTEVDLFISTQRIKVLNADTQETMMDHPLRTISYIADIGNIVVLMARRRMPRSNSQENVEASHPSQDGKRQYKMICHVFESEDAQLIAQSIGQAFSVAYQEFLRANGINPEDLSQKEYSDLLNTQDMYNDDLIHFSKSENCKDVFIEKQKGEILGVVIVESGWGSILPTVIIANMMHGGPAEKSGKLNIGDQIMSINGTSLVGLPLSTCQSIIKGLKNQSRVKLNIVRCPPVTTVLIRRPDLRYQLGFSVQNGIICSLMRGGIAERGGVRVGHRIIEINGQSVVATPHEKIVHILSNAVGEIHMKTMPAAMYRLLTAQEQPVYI
Series [10] deals with T4, Voltage-gated N-type calcium channel alpha-1B subunit/Amyloid beta A4 precursor protein-binding family A member 1. The format is protein assay. The source holds these as a separate data set.
Series [11] is described as follows: NIH-3T3 fibroblast cytotoxicity, dose response, cytotoxicity control, cell-based, fluorescence, Alamar Blue, secondary assay (AID 2327).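 Further: NIH-3T3 mouse fibroblasts cultured with fluconazole at 8 µg/mL.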 The format is functional.
Series [12] in a line: cells. The class given is functional, cell-based.
Series [13] concerns the target T5, DNA repair protein RAD52 homolog (Homo sapiens, UniProt P43351).
T5 sequence (P43351 whole entry): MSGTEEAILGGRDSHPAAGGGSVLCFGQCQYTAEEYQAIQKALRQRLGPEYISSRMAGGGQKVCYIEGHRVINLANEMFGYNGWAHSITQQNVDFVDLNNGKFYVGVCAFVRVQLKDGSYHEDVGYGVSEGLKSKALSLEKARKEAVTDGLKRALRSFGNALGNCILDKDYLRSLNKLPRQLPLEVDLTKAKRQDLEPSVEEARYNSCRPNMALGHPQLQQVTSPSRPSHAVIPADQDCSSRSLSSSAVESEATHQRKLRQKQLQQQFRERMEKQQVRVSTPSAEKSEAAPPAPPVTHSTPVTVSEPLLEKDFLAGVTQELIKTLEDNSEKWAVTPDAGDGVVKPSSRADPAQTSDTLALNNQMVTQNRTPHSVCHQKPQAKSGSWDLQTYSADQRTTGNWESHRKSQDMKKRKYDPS
The class given is functional, biochemical.

Series [14] can be described thus: cells. The class given is functional, cell-based. This is another data set of the same source.
Series [15] concerns the target T6, Ubiquitin-conjugating enzyme E2 N (Homo sapiens, UniProt P61088).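 Further: Dose-response confirmation in a TR-FRET assay detecting UBC13-driven polyubiquitin chain formation, inhibition measured.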
T6 sequence (P61088 whole entry): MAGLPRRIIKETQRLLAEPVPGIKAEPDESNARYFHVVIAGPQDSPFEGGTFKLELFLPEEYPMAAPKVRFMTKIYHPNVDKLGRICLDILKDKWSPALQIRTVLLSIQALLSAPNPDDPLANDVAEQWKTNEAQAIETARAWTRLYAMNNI
The format is functional.

The target in series [16] is Voltage-dependent T-type calcium channel subunit alpha-1H (Homo sapiens, UniProt O95180). The class given is functional.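 Further: channel activity triggered by adding a high calcium stimulation buffer.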
The target of series [17] is Cytochrome P450 3A4 (Homo sapiens, UniProt P08684). The settings on record: Potency.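 Further: confirmatory qHTS run detecting inhibitors and substrates of CYP3A4.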
Chain of Cytochrome P450 3A4 (P08684 whole entry): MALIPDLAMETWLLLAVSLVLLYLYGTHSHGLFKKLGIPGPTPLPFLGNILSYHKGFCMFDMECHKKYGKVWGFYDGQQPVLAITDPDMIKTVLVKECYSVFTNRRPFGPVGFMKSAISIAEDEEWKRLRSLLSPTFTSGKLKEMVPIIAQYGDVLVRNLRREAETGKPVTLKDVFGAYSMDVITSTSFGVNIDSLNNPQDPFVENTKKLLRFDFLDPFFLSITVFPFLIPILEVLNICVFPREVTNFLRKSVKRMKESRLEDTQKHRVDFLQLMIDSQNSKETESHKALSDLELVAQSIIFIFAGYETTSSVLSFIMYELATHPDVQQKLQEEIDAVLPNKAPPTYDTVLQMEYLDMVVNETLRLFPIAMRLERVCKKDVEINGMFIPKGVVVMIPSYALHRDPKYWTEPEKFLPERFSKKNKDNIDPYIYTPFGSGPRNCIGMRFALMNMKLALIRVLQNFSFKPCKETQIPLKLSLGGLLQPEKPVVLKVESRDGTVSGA
Series [18] addresses T7, Coagulation factor XII (Homo sapiens, UniProt P00748).
T7 sequence (P00748 whole entry): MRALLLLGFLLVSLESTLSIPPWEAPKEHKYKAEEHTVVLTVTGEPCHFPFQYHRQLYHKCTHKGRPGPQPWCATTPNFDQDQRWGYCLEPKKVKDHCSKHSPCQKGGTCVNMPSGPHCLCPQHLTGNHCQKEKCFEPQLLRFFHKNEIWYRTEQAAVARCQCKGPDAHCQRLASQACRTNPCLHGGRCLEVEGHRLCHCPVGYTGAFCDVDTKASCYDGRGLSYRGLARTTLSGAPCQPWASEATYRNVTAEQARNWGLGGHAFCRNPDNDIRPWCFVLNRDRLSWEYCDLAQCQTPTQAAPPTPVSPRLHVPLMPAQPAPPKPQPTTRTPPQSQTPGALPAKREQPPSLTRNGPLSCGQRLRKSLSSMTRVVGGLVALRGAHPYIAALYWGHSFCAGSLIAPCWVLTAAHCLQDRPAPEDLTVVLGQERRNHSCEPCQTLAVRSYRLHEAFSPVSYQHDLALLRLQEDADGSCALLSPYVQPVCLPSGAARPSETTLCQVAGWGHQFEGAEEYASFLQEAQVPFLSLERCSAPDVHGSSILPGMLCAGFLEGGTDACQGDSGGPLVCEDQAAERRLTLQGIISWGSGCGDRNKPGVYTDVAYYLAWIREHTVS
The class given is functional.

Series [19] is described as follows: A549 cell cytotoxicity, dose response, cytotoxicity control, plate reader, cherry-pick, antagonist series (AID 743412). The class given is functional, cell-based.
Series [20] is described as follows: OVCAR8 cell viability loss – plate reader, dry powder samples, PAX8 project, dose response (AID 743197). The format is functional, cell-based. The conditions noted are these: OVCAR-8.
Series [21] is described as follows: IGROV1 cell killing – plate reader, dry powder samples, PAX8 inhibitor project, dose response (AID 743043). The settings on record: IGROV-1. The format is functional, cell-based.
Series [22] addresses Paired box protein Pax-8 (Homo sapiens, UniProt Q06710). The experiment in a line: PAX8 transcriptional activity inhibition in RMG-I – RMG-I cells, luciferase, cherry-pick, dose response (AID 687027).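 Further: luciferase reporter driven by Pax8 target thyroperoxidase promoter measured by SteadyGlo luminescence.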 The format is functional, cell-based.

Active and inactive are the calls of the source. A value given as a limit tells only on which side of the number the result lay.

Chain of Paired box protein Pax-8 (Q06710 whole entry): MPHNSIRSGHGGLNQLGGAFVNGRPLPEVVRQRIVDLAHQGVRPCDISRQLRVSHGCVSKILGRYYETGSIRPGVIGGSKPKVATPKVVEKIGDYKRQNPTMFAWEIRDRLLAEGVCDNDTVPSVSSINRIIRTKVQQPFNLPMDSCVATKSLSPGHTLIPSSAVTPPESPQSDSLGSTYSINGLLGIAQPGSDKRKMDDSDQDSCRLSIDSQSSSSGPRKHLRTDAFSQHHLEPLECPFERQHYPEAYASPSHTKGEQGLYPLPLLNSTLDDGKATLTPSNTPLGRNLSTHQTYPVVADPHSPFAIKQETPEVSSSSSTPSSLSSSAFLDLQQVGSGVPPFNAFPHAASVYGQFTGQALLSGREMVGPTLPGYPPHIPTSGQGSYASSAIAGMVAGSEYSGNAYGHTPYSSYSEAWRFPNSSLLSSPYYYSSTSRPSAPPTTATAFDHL

As for `CCOC(=O)C(/C=N/c1cccc(C)c1C)=C(/O)OCC`, the IC50 in series [1] is reported as > 50 µM (not active); in series [2], 14 µM (not active). The AC50 result in [3] is listed as “inconclusive”.
On to `COc1cc(/C=N/O)ccc1OCc1ccccc1Cl`, for which the AC50 in [4] is 40.7 µM (active).
Regarding `O=C(NC(=S)NNC(=O)c1ccccc1O)c1ccc([N+](=O)[O-])cc1`, the IC50 is > 66 µM (inactive) in [5], > 66 µM (inactive) in series [6] and > 122 µM (inactive) in [8]. For the same compound, the EC50 in series [7] was > 53 µM (inactive).
On to `O=C1c2ccccc2NC(c2cccc(Cl)c2)N1N=C1CCCCCC1` (configuration not stated), for which the concentration at half-maximal activity (AC50) in series [4] is 200 µM (active).
Take `COc1ccc2nc(NC(=O)/C=C/c3ccc4c(c3)OCO4)sc2c1`: the IC50 in [9] is 41.5 µM (active); in series [10], 19.5 µM (active).
Consider `CCOC(=O)c1c(-c2ccccc2)oc2ccc(OCC(O)CN(C)C)cc12` (configuration not stated), for which the EC50 was 10 µM (inconclusive) in [11], 21.7 µM (active) in series [12] and > 350 µM (not active) in series [14]. In series [13], the concentration at half-maximal activity (AC50) is 15.5 µM (active). Besides, the IC50 in [15] is > 20 µM (inactive).
Regarding `O=C(Cc1cccs1)Nc1nnc(CCc2ccccc2)s1`, in series [1], the IC50 was 25.4 µM (active).
Turning to `c1ccn(-c2ccc(-c3cc[nH]n3)cc2)c1`, the AC50 in [4] is 90.9 µM (active).
On to `O=C(CSCc1ccc(Cl)cc1)NCc1ccc2c(c1)OCO2`, for which the EC50 in series [16] was 4.2 µM (active).
As for `COC(=O)c1ccccc1NC(=O)C1CC(=O)N(c2ccc(F)cc2)C1` (configuration not stated), the IC50 in series [1] is listed as > 50 µM (not active).
Consider `CCc1nc2sc3c(=O)cc(O)[nH]c3c2cc1C`, for which the results for the IC50 in [9] and in series [10] were 24.8 µM (active) and > 56.8 µM (not active), respectively.
In the case of `OC1CC2CCC(C1)N2CCCN1c2ccccc2Sc2ccc(Cl)cc21` (configuration not stated), the AC50 in [13] is 12.9 µM (active).
For `CCCC(=O)n1nc(-c2cccnc2)nc1NCc1ccccc1`, in series [1], the IC50 is 0.00538 µM (active).
Regarding `COc1ccc(CCC(=O)NN=C(S)Nc2cccc(C(C)=O)c2)cc1`, in series [8], the IC50 is > 122 µM (inactive).
`COc1ccc(Cl)cc1NC(=O)c1nnn(CC(=O)Nc2ccc(OC)c(OC)c2)c1N`: the IC50 is > 50 µM (inactive) in [9] and > 56.8 µM (not active) in series [10].
As for `CC1=C(C(=O)OCc2ccccc2)C(c2ccc(C3CCCCC3)cc2)NC(=O)N1CCCCCC(=O)O` (configuration not stated), the AC50 in [17] was 7.94 µM (inconclusive).
In the case of `CCn1c(C)nc2cc(C(=O)NN=C(S)Nc3ccc(C)cc3)ccc21`, the IC50 in [18] was > 50 µM (inactive); in [1], > 50 µM (not active).
As for `Nc1c(Br)cc([N+](=O)[O-])cc1[N+](=O)[O-]`, the concentration at half-maximal activity (AC50) in [17] is 25.1 µM (inconclusive).
Take `COc1ccc2[nH]c3c(c2c1)CCN1C(=O)N([C@@H](C)C(=O)NCc2ccc(C)cc2)C(=O)[C@]31C`: the AC50 in [19] was > 52 µM (inactive).
`O=[N+]([O-])c1ccc2c3c(cccc13)CC2`: the concentration at half-maximal activity (AC50) in series [17] is 31.6 µM (inconclusive).
For `O=c1c2ccccc2nc(N2CCN(c3ccccc3)CC2)n1Cc1ccccc1`, the EC50 in [16] was 9.51 µM (active).
Regarding `C[C@]12CC[C@@H]3c4ccc(OC(=O)c5ccccc5)cc4CC[C@H]3[C@@H]1CCC2=O`, in [17], the AC50 was 7.94 µM (inconclusive).
Consider `CN(C[C@H]1N[C@@H](CO)[C@@H]1c1ccc(-c2cccc(F)c2)cc1)S(C)(=O)=O`, for which the AC50 was 23.7 µM (active) in [20], 14.9 µM (active) in series [21] and 10.3 µM (active) in series [22].
As for `Sc1nnc(-c2ccc(Cl)cc2Cl)n1Cc1ccccc1`, in [8], the IC50 is > 122 µM (inactive).
Take `Cc1ccc(F)cc1-c1cc2nc(NCCCN(C)C)n(C)c(=O)c2s1`: the AC50 in [13] was 19.2 µM (active).
As for `COc1cc(NC(=O)c2ccc(F)cc2)ccc1NC(=O)c1cc2ccccc2o1`, the figures for the IC50 in series [9] and in series [10] were > 50 µM (inactive) and 4.02 µM (active), respectively.
As to `COc1ccccc1N=C(S)NNC(=O)c1nn(C)c(C)c1Cl`, the IC50 in [8] is > 122 µM (inactive).
Consider `C[C@H](CO)N1C[C@H](C)[C@@H](CN(C)Cc2ccc(Oc3ccccc3)cc2)Oc2ccc(NS(=O)(=O)c3ccc(F)cc3)cc2CC1=O`, for which the concentration at half-maximal activity (AC50) in series [20] was 63.3 µM (active); in [21], 40 µM (active); in series [22], 6.47 µM (active).
Consider `N=C(N)Nc1ccc2[nH]c3c(c2c1)C[C@@]1(O)[C@H]2Cc4ccc(O)c5c4[C@@]1(CCN2CC1CC1)[C@H]3O5`, for which, in series [13], the AC50 is 8.43 µM (active).
